Laboratory results published in patent EP3391747A1, “USE OF PHENOXYPYRIDINYL-SUBSTITUTED (1H-1,2,4-TRIAZOL-1-YL)ALCOHOLS FOR ENHANCING CROP PERFORMANCE” (Bayer AG, priority 2018, dated 2018).

Assays:
[1] = test system: leaf discs of grape plants; assay: Leaf disc test: chlorophyll content (greening effect) by SPAD-502 chlorophyll meter; conditions: 1 ppm; after 3 days at room temperature (21°C); 5 replicates
Procedure: According to this invention the chlorophyll content is measured by means of the commercially available hand-held chlorophyll meter SPAD-502 (Konica Minolta).
In a lab experiment, leaf discs of grape plants were put in petri dishes containing solutions of different compounds. 5 replicates were used for each treatment. Afterwards, the petri dishes were incubated for max. 7 days at room temperature (21°C). After 3 days, the chlorophyll content of the leaf discs was measured by using a commercially available hand-held chlorophyll meter (SPAD-502, Konica Minolta). Table 2: Impact of 2-[6-(4-bromophenoxy)-2-(trifluoromethyl)-3-pyridyl]-1-(1,2,4-triazol-1-yl)propan-2-ol (I.02) on the chlorophyll content (greening effect) in leaf discs

Septoria tritici = Septoria tritici test / in vitro microtest (liquid medium, microtitre plates, optical density at 620 nm); type: cell-based; conditions: for EC50 (Mean): mean over the 14 strains; for EC50: 5 days of incubation
Procedure: In an in-vitro microtest, several compounds were tested against different strains of Septoria tritici.
The microtest was performed in liquid medium with 50% malt medium using microtitre plates.
The active compounds are applied as technical active substances dissolved in methanol and 8 concentrations were prepared. The resulting concentration range was 0; 0.0032; 0.016; 0.08; 0.4; 2; 10; and 50 µg a.i. /ml. A mycelium suspension of different strains of Septoria tritici was used for inoculation. After 5 days of incubation in darkness under shaking (10 Hrz) the optical density in each cavity was determined photometrically at 620 nm. […] Table 3: Septoria tritici test /in vitro

winter wheat = assay: Field trial in winter wheat: impact on yield, greening and canopy coverage under pathogen-free conditions; type: in vivo, winter wheat variety "Dekan"; conditions: 125 g a.i./ha; for Grain Yield (% of Control) / Grain Yield: sprayed threefold at BBCH 31, 39 and 69 as 100EC formulation; for Grain Yield (% of Control): control = 100EC blank formulation; for Grain Yield: harvest July 2017; for Greening (% of Control): measured visually at BBCH growth stage 65, untreated control plots = 100%; for Canopy Coverage: tractor-mounted RGB camera system, BBCH growth stage 37
Procedure: A field trial in winter wheat was conducted in the experimental station "Laacherhof" in Germany from autumn 2016 to summer 2017.
Seeds of the winter wheat variety "Dekan" were planted in October 2016. Fertilization, herbicide- and plant growth regulator applications were carried out according to the local agricultural practice. Additionally, a cover spray with the fungicidal composition "Pronto® Plus" was carried out at BBCH growth stage 51 in order to keep the field trial pathogen-free. The trial was conducted with 4 replicates and the replicates 2, 3 and 4 were randomized. The plot size was 8.8 m^2.
The compounds 2-[6-(4-chlorophenoxy)-2-(trifluoromethyl)-3-pyridyl]-1-(1,2,4-triazol-1-yl)propan-2-ol (I.01) and 2-[6-(4-bromophenoxy)-2-(trifluoromethyl)-3-pyridyl]-1-(1,2,4-triazol-1-yl)propan-2-ol (1.02) were sprayed threefold at BBCH growth stages 31, 39 and 69 with an use rate of 125 g a.i./ha (a.i. = active ingredient, i.e. the respective compound of formula (I)). Both compounds were applied as a 100EC formulation (100EC = emulsion concentrate comprising 100 g/L of the respective active ingredient).
The winter wheat was harvested in July 2017.
The greening effect was measured visually at BBCH growth stage 65. The greening of the untreated control plots corresponds to 100% and the plots of the other treatments were directly compared to the control plots (table 1).
The canopy coverage was measured by a tractor-mounted RGB camera system on May 11, 2017 at BBCH growth stage 37 (table 1). Table 1: Impact of different compounds on yield, greening and canopy coverage

Row | SMILES | SPAD Reading [1] | EC50 (Mean) (Septoria tritici) | EC50 (Septoria tritici; strain 01/16) | EC50 (Septoria tritici; strain 02/16) | EC50 (Septoria tritici; strain 03/16) | EC50 (Septoria tritici; strain 04/16) | EC50 (Septoria tritici; strain 05/16) | EC50 (Septoria tritici; strain 06/16) | EC50 (Septoria tritici; strain 07/16) | EC50 (Septoria tritici; strain 08/16) | EC50 (Septoria tritici; strain 09/16) | EC50 (Septoria tritici; strain 11/16) | EC50 (Septoria tritici; strain 12/16) | EC50 (Septoria tritici; strain 13/16) | EC50 (Septoria tritici; strain 14/16) | EC50 (Septoria tritici; strain 15/16) | Grain Yield (% of Control) (winter wheat) | Grain Yield (winter wheat) | Greening (% of Control) (winter wheat) | Canopy Coverage (winter wheat) [%]
1 | CC(C)(C)C(O)(CCc1ccc(Cl)cc1)Cn1cncn1 (stereo not shown) [Tebuconazole, reference compound] | 25 | 7,4138 ppm | 8,1102 ppm | 14,4303 ppm | 13,2784 ppm | 50,0000 ppm | 8,5712 ppm | 10,6222 ppm | 5,4355 ppm | 4,2639 ppm | 27,1082 ppm | 0,6823 ppm | 2,1260 ppm | 28,6583 ppm | 3,4790 ppm | 2,3577 ppm |  |  |  | 
2 | CC(O)(Cn1cncn1)c1ccc(Oc2ccc(Br)cc2)nc1C(F)(F)F (stereo not shown) [Compound 1.02, 2-[6-(4-bromophenoxy)-2-(trifluoromethyl)-3-pyridyl]-1-(1,2,4-triazol-1-yl)propan-2-ol] | 32 | 0,0133 ppm | 0,0187 ppm | 0,0108 ppm | 0,0043 ppm | 0,0433 ppm | 0,0223 ppm | 0,0033 ppm | 0,0032 ppm | 0,0629 ppm | 0,0416 ppm | 0,0038 ppm | 0,0806 ppm | 0,0169 ppm | 0,0080 ppm | 0,0059 ppm | 112 % of Control | 77,8 dt/ha | 137 % of Control | 58
3 | CC(O)(Cn1cncn1)c1ccc(Oc2ccc(Cl)cc2)nc1C(F)(F)F (stereo not shown) [Compound 1.01, 2-[6-(4-chlorophenoxy)-2-(trifluoromethyl)-3-pyridyl]-1-(1,2,4-triazol-1-yl)propan-2-ol] |  | 0,0203 ppm | 0,1348 ppm | 0,0248 ppm | 0,0032 ppm | 0,0355 ppm | 0,0503 ppm | 0,0039 ppm | 0,0032 ppm | 0,0641 ppm | 0,1002 ppm | 0,0034 ppm | 0,0715 ppm | 0,0055 ppm | 0,0147 ppm | 0,0663 ppm | 108 % of Control | 74,6 dt/ha | 108 % of Control | 58
